Reference: patent US20030144345A1, “Treatment of metabolic diseases with soraphen derivatives” (priority 2001, published 2003)
pIC50: −log10 of the molar value.

What was measured:
HepG2 cells = experiment: Fatty acid (palmitate) oxidation assay with human liver hepatoma cells HepG2; assay type: cell-based; settings: HepG2, 10 μM
Protocol: For routine passaging, HepG2 cells (American Type Culture Collection, ATCC) were grown in T75 flasks (Falcon, #353136) in 15 ml of Dulbecco's modified Eagle medium (DMEM, Sigma, #D5796), containing 10% heat inactivated fetal bovine serum (FBS, Summit Biotechnology, #S-100-05) and 1% Penicillin/Streptomycin (Sigma, #P4333). […] The cells were passaged once per week by trypsinization and an additional change of medium was done after 3 to 4 days after passaging.

human ACCβ enzyme = target: T1, human ACCβ enzyme (Homo sapiens, UniProt O00763); experiment: Human ACCβ enzyme activity / inhibition assay (radiometric); assay type: biochemical; settings: for Effect on K0.5 of K-citrate / Effect on Vmax of the ACC enzyme reaction: titration of compound at 0.5, 1 and 2 times IC50
T1 construct: The cloning of the full length human muscle-type ACCβ cDNA and expression in HEK293 cells; made in house; host or cells: HEK293 cells (ATCC CRL-1573), plasmid pRF33D
Protocol: The cloning of the full length human muscle-type ACCβ cDNA and expression in HEK293 cells (ATCC, #CRL-1573) was performed as follows. The ACCβ cDNA was amplified by the polymerase chain reaction (PCR) and was cloned using standard recombinant DNA techniques. The PCR reaction was performed with the Expand Long Template PCR System (Roche Molecular Biochemicals, #1 681 8340) and 0.5 ng of cDNA from human skeletal muscle as template. The primers used for PCR amplification were designed on the basis of the published sequence of the human ACCβ cDNA isolated from a human liver cDNA library (Abul-Elheiga et al. J. Biol Chem. 272, 10669-10677, 1997). The sequence of the forward primer ACCB1 was 5′-[…]-3′; it includes a NheI restriction cleavage site for subcloning and a Kozak translation initiation consensus sequence preceding the ATG start codon. The sequence of the reverse primer ACCB8 was 5′-[…]-3′; it includes a stop codon and a XhoI restriction cleavage site for subcloning. The amplified DNA fragment of approximately 7.4 kb was cloned into a mammalian expression vector. The resulting plasmid isolates, pRF33A, B, C, D, and E were individually transfected in human embryonic kidney 293 cells (HEK293) using a standard lipid transfection method. Cell extracts of transfected cells were prepared in a lysis buffer containing 0.4 mg/ml digitonin and enzyme activity was determined using a radiometric ACC activity assay as described below. Plasmid pRF33D gave the highest activity and was chosen for large scale transfections of HEK293 cells and enzyme purification.
Since ACC enzyme activities in crude cell lysates were very low, enrichment of ACCβ enzyme expressed in HEK293 cells was achieved by a single anion exchange chromatography step. Cell lysates were run over a 5 ml Econo Pac High Q column (Bio-Rad, #732-0027). Bound proteins were eluted by a gradient of NaCl from 0 to 1 M in 50 mM Tris-HCl, pH 7.5, 1 mM DTT, 5% glycerol. Fractions containing high ACCβ enzyme activity were pooled and stored at −20° C.
Standard ACCβ enzyme assays, in a total volume of 100 μl, contained 50 mM HEPES-KOH, pH 7.5, 10 mM K-citrate, 10 mM MgSO4, 1 mM ATP, 0.1 mM DTT, 2% DMSO, 0.1 mg/ml fatty acid-free BSA, 0.2 mM acetyl-CoA, 2 mM KHCO3, 0.2 mM [^14C]NaHCO3 (50-60 mCi/mmol) and cell lysate or purified ACCβ enzyme. Reactions were incubated at 37° C. for 45 min. and stopped by the addition of 50 μl of 2 N HCl. Terminated reactions were incubated at 50° C. over night to evaporate non-incorporated [^14C]NaHCO3. [^14C]-labeled malonyl-CoA reaction product was quantitated by liquid scintillation counting after the addition of 20 μl of Microscint 20 (Canberra Packard, #6013621) on a TopCount NXT microplate scintillation counter (Canberra Packard).
Inhibition of ACCβ activity was determined at saturating substrate concentrations with two-fold serial dilutions of test compounds spanning a concentration range of at least two log units. IC50 values were calculated with the GraFit software (Erithacus Software Ltd.). Kinetic parameters (Km, Vmax and K0.5) were determined by varying one substrate (or allosteric effector) in a two-fold serial dilution over a concentration range of at least two log units while keeping all other substrates at constant saturating concentrations. Fitting to the Michaelis-Menten equation (for calculation of Km of substrates) and fitting to the Hill equation (for calculation of K0.5of the allosteric activator K-citrate) was done with the GraFit software. To determine the mode of action of Soraphens, determinations of Km for ATP and acetyl-CoA and of K0.5 for K-citrate were repeated in the absence and in the presence of the three different Soraphens at 0.5, 1 and 2 times their IC50 and the data were fitted to the equation for non-competitive inhibition with the GraFit software.

T1 sequence (O00763 whole entry): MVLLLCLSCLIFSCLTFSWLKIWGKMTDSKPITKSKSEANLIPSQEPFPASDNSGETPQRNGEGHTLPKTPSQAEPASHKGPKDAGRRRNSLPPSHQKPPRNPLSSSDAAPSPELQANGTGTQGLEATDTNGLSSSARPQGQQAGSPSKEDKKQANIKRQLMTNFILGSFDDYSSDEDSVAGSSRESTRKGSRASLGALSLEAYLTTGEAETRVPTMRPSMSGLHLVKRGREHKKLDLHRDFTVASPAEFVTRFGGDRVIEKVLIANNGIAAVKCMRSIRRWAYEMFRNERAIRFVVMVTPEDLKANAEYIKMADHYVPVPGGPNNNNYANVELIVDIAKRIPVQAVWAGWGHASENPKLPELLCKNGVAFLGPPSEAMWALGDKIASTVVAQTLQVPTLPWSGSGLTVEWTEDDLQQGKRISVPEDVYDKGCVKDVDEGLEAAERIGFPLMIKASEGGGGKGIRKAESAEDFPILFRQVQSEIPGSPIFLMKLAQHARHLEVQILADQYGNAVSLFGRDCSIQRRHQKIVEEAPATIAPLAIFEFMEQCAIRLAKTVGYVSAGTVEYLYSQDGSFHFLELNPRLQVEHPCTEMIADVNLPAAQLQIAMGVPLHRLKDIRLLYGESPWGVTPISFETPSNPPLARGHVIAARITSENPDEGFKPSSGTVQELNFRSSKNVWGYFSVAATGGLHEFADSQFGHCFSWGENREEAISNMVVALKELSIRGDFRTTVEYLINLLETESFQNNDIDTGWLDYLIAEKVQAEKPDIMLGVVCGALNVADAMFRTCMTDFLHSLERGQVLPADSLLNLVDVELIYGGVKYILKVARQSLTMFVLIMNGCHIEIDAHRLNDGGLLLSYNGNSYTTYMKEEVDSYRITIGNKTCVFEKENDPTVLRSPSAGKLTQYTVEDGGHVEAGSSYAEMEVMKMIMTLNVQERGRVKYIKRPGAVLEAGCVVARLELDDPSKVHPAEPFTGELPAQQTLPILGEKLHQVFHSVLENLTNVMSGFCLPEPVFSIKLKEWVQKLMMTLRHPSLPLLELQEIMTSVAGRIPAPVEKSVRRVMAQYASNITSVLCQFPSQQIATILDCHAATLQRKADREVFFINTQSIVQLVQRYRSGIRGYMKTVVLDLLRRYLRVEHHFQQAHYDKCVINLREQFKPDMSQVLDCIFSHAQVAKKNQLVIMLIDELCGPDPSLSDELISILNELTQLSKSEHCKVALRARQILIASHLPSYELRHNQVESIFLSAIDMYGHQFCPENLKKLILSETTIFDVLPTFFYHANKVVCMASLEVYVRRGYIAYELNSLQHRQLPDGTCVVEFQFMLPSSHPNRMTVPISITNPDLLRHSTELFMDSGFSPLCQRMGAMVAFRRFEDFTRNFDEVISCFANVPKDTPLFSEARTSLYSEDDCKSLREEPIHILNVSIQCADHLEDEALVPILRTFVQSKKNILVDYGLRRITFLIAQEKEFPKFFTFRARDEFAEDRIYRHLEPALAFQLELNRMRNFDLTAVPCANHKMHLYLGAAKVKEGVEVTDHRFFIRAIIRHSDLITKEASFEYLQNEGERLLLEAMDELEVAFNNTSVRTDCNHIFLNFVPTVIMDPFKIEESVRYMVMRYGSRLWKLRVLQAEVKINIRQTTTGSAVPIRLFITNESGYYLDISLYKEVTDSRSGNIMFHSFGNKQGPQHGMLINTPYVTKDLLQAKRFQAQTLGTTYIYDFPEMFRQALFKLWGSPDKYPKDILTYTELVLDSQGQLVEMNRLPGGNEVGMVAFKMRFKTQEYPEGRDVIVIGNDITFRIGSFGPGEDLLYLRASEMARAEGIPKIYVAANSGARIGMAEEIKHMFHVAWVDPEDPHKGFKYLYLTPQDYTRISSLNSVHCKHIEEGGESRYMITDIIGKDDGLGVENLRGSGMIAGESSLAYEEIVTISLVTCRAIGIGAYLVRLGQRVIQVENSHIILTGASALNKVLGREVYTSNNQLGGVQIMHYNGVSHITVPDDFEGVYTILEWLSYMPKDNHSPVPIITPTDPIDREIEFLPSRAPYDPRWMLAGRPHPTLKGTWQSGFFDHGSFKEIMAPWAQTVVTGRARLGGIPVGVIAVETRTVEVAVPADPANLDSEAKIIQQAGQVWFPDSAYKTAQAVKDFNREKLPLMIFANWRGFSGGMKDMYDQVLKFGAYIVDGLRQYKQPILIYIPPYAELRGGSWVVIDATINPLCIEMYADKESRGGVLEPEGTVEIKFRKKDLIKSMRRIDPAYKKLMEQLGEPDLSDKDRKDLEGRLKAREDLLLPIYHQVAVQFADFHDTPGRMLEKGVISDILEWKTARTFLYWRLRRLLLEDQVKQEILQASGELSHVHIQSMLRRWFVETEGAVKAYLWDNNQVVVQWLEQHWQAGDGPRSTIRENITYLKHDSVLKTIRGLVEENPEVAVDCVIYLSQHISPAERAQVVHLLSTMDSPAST

`CO[C@H]1CCCC[C@@H](c2ccccc2)OC(=O)[C@@H](C)C2(O)O[C@H]([C@@H](C)[C@H](O)[C@H]2OC)[C@@H](C)/C=C/[C@H]1OC` [Cpd (Ia), Soraphen A 1-α] was tested, and the “Fold stimulation over palmitate oxidation rate in the absence of test compounds” value (HepG2 cells) was 3.5 fold, the Palmitate oxidation rate (HepG2 cells) was 13.7 +/− 0.7 pmol · h^−1 · well^−1 and the pIC50 (human ACCβ enzyme) was 8.52. The “Effect on K0.5 of K-citrate” value (human ACCβ enzyme) was “did not change”, the “Effect on Vmax of the ACC enzyme reaction” value (human ACCβ enzyme) was “dose-dependent decrease” and the “Effect on K0.5 of K-citrate” value (human ACCβ enzyme; listed as Soraphen A 1-α) was “little effect”. The “Effect on Vmax of the ACC enzyme reaction” value (human ACCβ enzyme; listed as Soraphen A 1-α) was “reduced”.
